Test [1] concerns the target T1, PAL/TAL enzyme from the monocot Zea mays (Zea mays, UniProt Q8VXG7). The conditions noted are these: pH 8.7; cited from earlier work.
Test [2] concerns the target PAL-1 isozyme from parsley (Petroselinum crispum) (Petroselinum crispum, UniProt P24481). The conditions noted are these: cited from earlier work.
Test [3] has as its system tyrosine ammonia lyase (TAL) from Rhodobacter capsulatus. The format is biochemical. The conditions noted are these: for pH optimum of activity (TAL with L-tyrosine, PAL with L-phenylalanine): pH 6. The protocol: Both activities were followed by the following spectrophotometric assay (adapted from Rösler et al. (1997)): PAL activity was assayed by following cinnamic acid formation at 280 nm using a double beam spectrophotometer (Uvikon, Kontron, Herts, United Kingdom) in 10 mM Tris buffer at 35° C. The pH optimum was determined between the pH values 6-10. The substrate concentrations were varied between 5 mM and 0.2 mM. TAL activity was assayed by monitoring p-hydroxycinnamic acid formation at 310 nm and 35° C. The substrate concentration was varied between 2 mM and 0.01 mM. All reactions were performed in a total volume of 1 ml.
FIG. 3 presents Lineweaver-Burk plots for the two substrates at their respective pH optimum.
Since PAL and TAL sequences show significant homology to histidine ammonia lyases (HAL), which are common enzymes in bacteria, we also tested L-histidine as a substrate for the recombinant enzyme.

Test [4] has as its target T1, PAL/TAL enzyme from the monocot Zea mays. The experiment in a line: Kinetic parameters of the PAL/TAL enzyme from maize (Rösler et al., 1997). The format is biochemical. To be noted: pH 8.7.
Test [5] is described as follows: Laser flash photolysis, photocycle kinetics of PYP. Set-up: species or system Halorhodospira halophila. The conditions noted are these: flash 440 nm, universal buffer pH 8.0. The protocol: The laser flash photolysis and spectroscopy apparatus and the methods used for data analysis were as previously described (Meyer et al., 1987). The PYP sample was dialysed against a universal buffer (20 mM MES, 20 mM HEPES, and 20 mM glycine, pH 8.0) prior to the experiment. We used 1 ml samples, with an absorbance at 445 nm of approximately 0.2, for the kinetic measurements. By flashing the PYP sample with laser light of 440 nm, we could determine the kinetics of the light-induced absorbance changes. FIGS. 9a and 9b show the I1→I2 bleach reaction and the I2→P recovery of our in vivo formed holo-PYP. It can be seen that after a flash with 440 nm light, the PYP went through a normal photocycle. […] The rate of recovery was 7.2 s^−1, compared to 6.3 s^−1 for wild-type and chemically reconstituted PYP (Meyer et al., 1987; Genick et al., 1997). […] Since this is different from the 3.4 ms^−1 reported by Genick et al. (1997), we repeated the experiment under our conditions with native PYP and found the rate to be 1.3 ms^−1. This is approximately the same as what we measured with our recombinant PYP.

For test [6] the following is noted: reported by Genick et al. (1997); cited from earlier work.

Read-outs that look alike come from different tables or passages of the source.

T1 sequence (Q8VXG7 whole entry): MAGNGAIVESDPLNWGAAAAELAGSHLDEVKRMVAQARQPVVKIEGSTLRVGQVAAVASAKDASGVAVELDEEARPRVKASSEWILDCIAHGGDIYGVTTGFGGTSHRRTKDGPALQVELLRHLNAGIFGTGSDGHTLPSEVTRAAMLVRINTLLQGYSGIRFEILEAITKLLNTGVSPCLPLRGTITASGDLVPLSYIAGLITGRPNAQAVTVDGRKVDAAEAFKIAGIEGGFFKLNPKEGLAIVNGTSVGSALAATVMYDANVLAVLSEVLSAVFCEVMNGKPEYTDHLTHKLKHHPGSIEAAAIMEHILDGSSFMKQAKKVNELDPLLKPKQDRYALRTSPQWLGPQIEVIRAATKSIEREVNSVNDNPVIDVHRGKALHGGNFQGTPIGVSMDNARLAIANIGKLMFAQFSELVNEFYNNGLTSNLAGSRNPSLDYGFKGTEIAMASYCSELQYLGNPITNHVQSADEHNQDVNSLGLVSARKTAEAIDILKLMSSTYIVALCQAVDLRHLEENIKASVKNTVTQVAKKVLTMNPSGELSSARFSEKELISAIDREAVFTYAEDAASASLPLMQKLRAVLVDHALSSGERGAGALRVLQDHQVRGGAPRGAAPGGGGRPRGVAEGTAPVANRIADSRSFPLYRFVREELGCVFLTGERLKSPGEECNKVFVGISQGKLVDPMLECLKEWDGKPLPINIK

A word on the Km: it is the substrate concentration at which the rate is half of its maximum. For orientation: kcat means the maximal rate divided by the concentration of active sites. As for `N[C@@H](Cc1ccc(O)cc1)C(=O)O` [L-Tyrosine, L-tyrosine], the Km in test [1] is 19 µM. Moreover, the turnover number (kcat) is 0.9 s⁻¹ in test [1] and 0.3 s⁻¹ in test [2]. Moreover, the “pH optimum of activity (TAL with L-tyrosine, PAL with L-phenylalanine)” value in test [3] was 8.5.
As to `N[C@@H](Cc1c[nH]cn1)C(=O)O` [L-histidine], the “activity as substrate (histidine ammonia lyase activity)” value in test [3] (spectrophotometric assay of Schwede et al. (1999)) is reported as “could not detect any activity”.
On to `N[C@@H](Cc1ccccc1)C(=O)O` [L-Phenylalanine, L-phenylalanine], for which, in test [1], the Km is 270 µM and the kcat was 10 s⁻¹. In test [2], the Michaelis constant (Km) was 17.2 µM and the kcat was 22 s⁻¹. Also, in test [3], the “fold higher Km for L-Phe than for L-Tyr” value worked out at 80 fold and the “pH optimum of activity (TAL with L-tyrosine, PAL with L-phenylalanine)” value is recorded as 9.4. Besides, in test [4], the “fold higher Km value for L-Phe compared to L-Tyr” value worked out at 15 fold.
As to `N[C@@H](Cc1c[nH]c2ccccc12)C(=O)O` [L-tryptophan], the activity as substrate result in test [3] (up to a 5 mM concentration) is on record as “no activity was detected”.

B1: recombinant PYP: holo-photoactive yellow protein formed in vivo in Escherichia coli with TAL, pCL and pyp genes (protein, UniProt P16113 1-125, looked up)
Photoactive yellow protein: MEHVAFGSEDIENTLAKMDDGQLDGLAFGAIQLDGDGNILQYNAAEGDITGRDPKQVIGKNFFKDVAPCTDSPEFYGKFKEGVASGNLNTMFEYTFDYQMTPTKVKVHMKKALSGDSYWVFVKRV
modifications: recombinant holo form, expressed in E. coli
In the case of B1, the “rate constant of the bleach (I1→I2)” value in test [5] came to 1.6 ms^−1.

B2: wild-type PYP: wild-type Halorhodospira halophila photoactive yellow protein (protein, UniProt P16113 1-125, looked up)
Photoactive yellow protein: B1 Photoactive yellow protein
modifications: holo form with chromophore
For B2, the “rate constant of the bleach (I1→I2)” value in test [5] was determined as 1.3 ms^−1.

B3: chemically reconstituted PYP: recombinant apo-PYP with the chromophore chemically attached (Genick et al., 1997) (protein, UniProt P16113 1-125, looked up)
Photoactive yellow protein: B1 Photoactive yellow protein
modifications: chemically attached chromophore
Turning to B3, the “rate constant of the bleach (I1→I2)” value in test [6] is recorded as 3.4 ms^−1.
